This is an account of results in ChEMBL document CHEMBL3044796, “Design, synthesis, and biologic evaluation of some novel N-arylpyrazole derivatives as cytotoxic agents” (Med Chem Res, 2013).

For experiment [1], the system named is KB. The experiment can be described thus: Cytotoxicity against human KB after 48 hrs by MTT assay. In kind it is functional, cell-based.
Experiment [2] concerns Bel-7402. The experiment can be described thus: Cytotoxicity against human Bel7402 after 48 hrs by MTT assay. The format is functional, cell-based. The conditions noted are these: Bel-7402, 48 h. On the technique in general: Tetrazolium assays rely on reduction of a dye to a coloured formazan, in cell work by metabolically active cells.
Experiment [3] concerns HL-60. The experiment in a line: Cytotoxicity against human HL60 after 48 hrs by MTT assay. In kind it is functional, cell-based. The conditions noted are these: HL-60, 48 h.
Experiment [4] relates to BGC-823. The experiment can be described thus: Cytotoxicity against human BGC823 after 48 hrs by MTT assay. The conditions noted are these: BGC-823, 48 h. In kind it is functional, cell-based.
For experiment [5], the system named is Bel-7402. The experiment can be described thus: Ratio of cisplatin IC50 to compound IC50 for human Bel7402 cells. In kind it is functional.

pIC50: −log10 of the molar value.

For the compound `O=[N+]([O-])c1ccc(-n2cc(-c3ccc(C(F)(F)F)cc3)cn2)cc1`, the pIC50 in experiment [1] was 4.67; in experiment [2] it was 5.15; in experiment [3], 4.76; in experiment [4] it was 4.86.
With `O=[N+]([O-])c1ccc(-c2cnn(-c3ccc([N+](=O)[O-])cc3)c2)cc1`, the pIC50 in experiment [1] is 5.08; in experiment [2], 5.02; in experiment [3], 5.06; in experiment [4], 4.92.
For the compound `Cc1nn(-c2ccc([N+](=O)[O-])cc2)c(C)c1-c1cccc(-c2c(C)nn(-c3ccc([N+](=O)[O-])cc3)c2C)c1`, the pIC50 in experiment [1] is 5.00; in experiment [2], 4.93; in experiment [3], 4.97; in experiment [4], 4.92.
Take `Cc1nn(-c2ccc([N+](=O)[O-])cc2)c(C)c1-c1ccccc1-c1c(C)nn(-c2ccc([N+](=O)[O-])cc2)c1C`: the pIC50 in experiment [1] was 4.59; in experiment [2], 4.70; in experiment [3], 4.79; in experiment [4], 4.60.
With `CCCCCCCCOc1cc(-c2c(C)nn(-c3ccc([N+](=O)[O-])cc3)c2C)cc(-c2c(C)nn(-c3ccc([N+](=O)[O-])cc3)c2C)c1`, the negative logarithm of the IC50 (pIC50) in experiment [1] was 5.20; in experiment [2], 5.28; in experiment [3], 5.10; in experiment [4] it was 5.08. Also, the “Ratio IC50” value in experiment [5] is 1.5.
As for `O=[N+]([O-])c1ccc(-n2cc(-c3ccncc3)cn2)cc1`, the negative logarithm of the IC50 (pIC50) was 4.72 in experiment [1], 4.64 in experiment [2], 4.75 in experiment [3] and 4.68 in experiment [4].
As to `O=[N+]([O-])c1ccc(-n2cc(-c3cc(C(F)(F)F)cc(C(F)(F)F)c3)cn2)cc1`, the negative-log IC50 (pIC50) was 4.92 in experiment [1], 5.13 in experiment [2], 4.94 in experiment [3] and 4.73 in experiment [4].

The term pIC50 denotes the IC50 on a negative log10 scale, so that one unit is a factor of ten. Low values mean a high IC50, high ones a low IC50.
